Biological target: T1, Amine oxidase [copper-containing] 3 (Homo sapiens, UniProt Q16853)
T1 sequence (Q16853 whole entry): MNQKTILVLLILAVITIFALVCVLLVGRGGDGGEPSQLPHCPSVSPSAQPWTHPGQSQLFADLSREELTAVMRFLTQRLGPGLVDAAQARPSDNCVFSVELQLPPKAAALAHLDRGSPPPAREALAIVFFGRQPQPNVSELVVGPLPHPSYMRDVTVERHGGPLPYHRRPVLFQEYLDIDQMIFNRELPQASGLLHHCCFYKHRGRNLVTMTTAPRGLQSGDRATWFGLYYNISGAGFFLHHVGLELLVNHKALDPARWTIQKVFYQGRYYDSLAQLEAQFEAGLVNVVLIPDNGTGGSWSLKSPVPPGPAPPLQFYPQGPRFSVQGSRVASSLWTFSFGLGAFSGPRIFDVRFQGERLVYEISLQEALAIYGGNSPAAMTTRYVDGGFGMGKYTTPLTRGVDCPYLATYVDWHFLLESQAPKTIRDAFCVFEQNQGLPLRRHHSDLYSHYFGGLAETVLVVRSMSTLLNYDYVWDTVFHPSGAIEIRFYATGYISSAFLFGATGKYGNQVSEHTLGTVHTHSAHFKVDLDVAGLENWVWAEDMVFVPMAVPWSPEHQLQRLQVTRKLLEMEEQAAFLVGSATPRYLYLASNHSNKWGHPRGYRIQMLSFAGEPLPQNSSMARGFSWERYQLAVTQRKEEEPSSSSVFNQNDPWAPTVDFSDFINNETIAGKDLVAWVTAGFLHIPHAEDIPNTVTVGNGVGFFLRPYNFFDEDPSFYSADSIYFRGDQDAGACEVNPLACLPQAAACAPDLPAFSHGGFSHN
Experiment: Inhibition Activity of the Compound on rhVAP-1 and MAO-A/B
Experimental: Test substances: the compounds of the present invention shown in Table 1 and prepared according to the methods of the examples 1. Inhibition Activity of the Compounds on the rhVAP-1 Enzyme (1) Instrument, consumable and reagent Multifunctional microplate reader (MD, FlexStation 3), black bottom-impermeable 96-well plate (Corning), rhVAP-1 (PeproTech) (2) Preparation of Compound Concentration Gradient Solutions An appropriate amount of the test compound was dissolved in DMSO to 10 mM and stored. Before the experiment, an appropriate amount of 10 mM test compound mother liquor was diluted to 10 μM solution with DMSO. Then 3-fold gradient dilution with DMSO was performed, and 10 concentration gradients were formed.(3) Preparation of Enzyme Solutions. An appropriate amount of protein diluent was added to the rhVAP-1 powder to obtain 1 mg/mL of the mother liquor for storage. […] Then 50 μL of 2×substrate mixed solution was added to each well, and immediately the detection was performed with the microplate reader in a condition of an exciting light at 565 nm, an emitting light at 590 nm, the fluorescence intensity for detecting each well of 5 minutes/run, and a total detection time of 25 minutes.

IC50: 59 nM
Compound: CC(C)N1CCc2cc(OC/C(=C/F)CN)ccc2C1=O [US11649233, Compound 4]

Reference: BindingDB's records for patent US11649233 (Nanjing Transthera Biosciences, 2023)
